Assay: Complex solubility in acetonitrile with 0.1 M tetrabutylammonium hexafluorophosphate
Assay type: physicochemical
Conditions: room temperature
Description: FIG. 8 is a graph depicting the complex solubility in acetonitrile with 0.1 M tetrabutylammonium hexafluorophosphate.

maximum solubility: 15 mM
SMILES: CCC(CC[N-]C(=O)c1ccccn1)[N-]C(=O)c1ccccn1.[Ni+2] (stereo not shown) [Ni((Etbppn)]
